Laboratory results reported in ChEMBL document CHEMBL1201862, “PubChem BioAssay data set” (2004).
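Results reflect a 48-hour exposure of cells in 96-well plates to compound at five concentrations. GI50 is the concentration that inhibits growth by half.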 Activity calls are given as the source filed them. Cut-off read from the data, not from the text of the source: active = GI50 up to about 1.1 µM and inactive = higher.

Legend:
Test in all cases: DTP human tumour cell line panel, 48 h
[1] = test system: SNB-78
[2] = test system: LXFL 529
[3] = test system: DMS-273
[4] = test system: DMS-114
[5] = test system: DLD-1
[6] = test system: KM-20L2
[7] = test system: RXF 631
[8] = test system: HOP-18
[9] = test system: M19-MEL

Measured: GI50

CCCCC(C(=O)C(=O)Nc1ccc(C)cc1C)C(=O)C(C)C (stereo not given)
inactive: [1] > 100 µM | [2] > 100 µM | [3] > 100 µM | [4] > 100 µM | [5] > 100 µM | [6] > 100 µM | [7] > 100 µM | [8] > 100 µM | [9] > 100 µM

N#C/C(=C\c1ccc[nH]1)C(=O)c1ccccc1
inactive: [1] > 100 µM | [2] > 100 µM | [3] > 100 µM | [4] > 100 µM | [5] > 100 µM | [6] > 100 µM | [7] > 100 µM | [8] 70.3 µM | [9] > 100 µM

O=C(Nc1ccc(Cl)cc1)C1C(=O)C(=O)N(c2ccc(Cl)cc2)C1=O (stereo not given)
inactive: [1] 54 µM | [2] 59.2 µM | [3] > 100 µM | [4] > 100 µM | [5] 68.9 µM | [6] 45.8 µM | [7] > 100 µM | [8] > 100 µM | [9] > 100 µM

CCCCCCCCCCCCCCCc1ccc(OCC(O)CO)cc1 (stereo not given)
inactive: [1] 29.7 µM | [2] 26.7 µM | [3] 17.7 µM | [4] 29.7 µM | [5] 44.2 µM | [6] 31.6 µM | [7] 27.1 µM | [8] > 100 µM | [9] 18 µM

Cc1cc(=O)oc2cc3c(cc12)Oc1ccccc1O3
inactive: [1] 53 µM | [2] > 100 µM | [3] > 100 µM | [4] > 100 µM | [5] > 100 µM | [6] > 100 µM | [7] > 100 µM | [8] > 100 µM | [9] > 100 µM
